According to the supplement of paper PMC10307832:

Key:
Experiment in all cases: relative viability (nuclei count vs DMSO), 5 days (fraction); higher = more cells survive
[1] = system: NCI-H520
How it was run: (§1)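 Lung cancer cell lines in 1536-well plates got either a single drug or a fixed anchor-drug dose together with five library-drug doses (not always all listed) in √10 steps, by pin tool, on the day after seeding. Nuclei were counted after 5 days, and relative viability is the treated-to-vehicle ratio of nuclei counts. Values are medians of duplicate plates.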

[2] = system: A-427
How it was run: as §1

[3] = system: NCI-H1648
How it was run: as §1

[4] = system: NCI-H2347
How it was run: as §1

[5] = system: NCI-H1666
How it was run: as §1

[6] = system: NCI-H1650
How it was run: as §1

[7] = system: UMC-11
How it was run: as §1

[8] = system: NCI-H1755
How it was run: as §1

[9] = system: NCI-H2126
How it was run: as §1

[10] = system: H3255
How it was run: as §1

[11] = system: NCI-H3122
How it was run: as §1

[12] = system: NCI-H23
How it was run: as §1

[13] = system: NCI-H2405
How it was run: as §1

[14] = system: BEN
How it was run: as §1

[15] = system: NCI-H358
How it was run: as §1

[16] = system: NCI-H2087
How it was run: as §1

[17] = system: ChaGo-K-1
How it was run: as §1

[18] = system: NCI-H1437
How it was run: as §1

[19] = system: NCI-H2009
How it was run: as §1

[20] = system: NCI-H441
How it was run: as §1

[21] = system: SK-LU-1
How it was run: as §1

[22] = system: EKVX
How it was run: as §1

[23] = system: NCI-H322M
How it was run: as §1

SMILES: Oc1nc(-c2ccc(C(F)(F)F)cc2)nc2c1CSCC2 [XAV939] + Nc1nc2[nH]cc(CCc3ccc(C(=O)N[C@@H](CCC(=O)O)C(=O)O)cc3)c2c(=O)[nH]1 [Pemetrexed] (partner 0.2 µM)
- relative viability ([1]; first compound 0.08 µM): 0.757
- relative viability ([1]; first compound 0.8 µM): 0.594
- relative viability ([1]; first compound 2.53 µM): 0.626
- relative viability ([2]; first compound 0.08 µM): 0.613
- relative viability ([2]; first compound 0.253 µM): 0.953
- relative viability ([2]; first compound 0.8 µM): 0.962
- relative viability ([2]; first compound 2.53 µM): 0.837
- relative viability ([3]; first compound 0.253 µM): 0.701
- relative viability ([3]; first compound 0.8 µM): 0.667
- relative viability ([3]; first compound 2.53 µM): 0.722
- relative viability ([4]; first compound 0.08 µM): 0.456
- relative viability ([4]; first compound 0.253 µM): 0.41
- relative viability ([4]; first compound 0.8 µM): 0.435
- relative viability ([4]; first compound 2.53 µM): 0.42
- relative viability ([5]; first compound 0.08 µM): 0.822
- relative viability ([5]; first compound 0.253 µM): 0.865
- relative viability ([5]; first compound 0.8 µM): 0.864
- relative viability ([5]; first compound 2.53 µM): 0.925
- relative viability ([6]; first compound 0.08 µM): 0.368
- relative viability ([6]; first compound 0.253 µM): 0.301
- relative viability ([6]; first compound 0.8 µM): 0.356
- relative viability ([6]; first compound 2.53 µM): 0.365
- relative viability ([7]; first compound 0.08 µM): 0.893
- relative viability ([7]; first compound 0.253 µM): 0.635
- relative viability ([7]; first compound 0.8 µM): 0.731
- relative viability ([7]; first compound 2.53 µM): 0.636
- relative viability ([8]; first compound 0.08 µM): 0.382
- relative viability ([8]; first compound 0.253 µM): 0.425
- relative viability ([8]; first compound 0.8 µM): 0.489
- relative viability ([8]; first compound 2.53 µM): 0.336
- relative viability ([9]; first compound 0.08 µM): 0.671
- relative viability ([9]; first compound 0.253 µM): 0.542
- relative viability ([9]; first compound 0.8 µM): 0.665
- relative viability ([9]; first compound 2.53 µM): 0.598
- relative viability ([10]; first compound 0.08 µM): 0.576
- relative viability ([10]; first compound 0.253 µM): 0.544
- relative viability ([10]; first compound 0.8 µM): 0.55
- relative viability ([10]; first compound 2.53 µM): 0.465
- relative viability ([11]; first compound 0.08 µM): 0.211
- relative viability ([11]; first compound 0.253 µM): 0.19
- relative viability ([11]; first compound 0.8 µM): 0.198
- relative viability ([11]; first compound 2.53 µM): 0.178
- relative viability ([12]; first compound 0.08 µM): 0.727
- relative viability ([12]; first compound 0.8 µM): 0.543
- relative viability ([12]; first compound 2.53 µM): 0.52
- relative viability ([13]; first compound 0.08 µM): 0.972
- relative viability ([13]; first compound 0.253 µM): 0.992
- relative viability ([13]; first compound 0.8 µM): 0.945
- relative viability ([13]; first compound 2.53 µM): 0.94
- relative viability ([14]; first compound 0.08 µM): 0.651
- relative viability ([14]; first compound 0.253 µM): 0.727
- relative viability ([14]; first compound 0.8 µM): 0.817
- relative viability ([14]; first compound 2.53 µM): 0.731
- relative viability ([15]; first compound 0.08 µM): 0.168
- relative viability ([15]; first compound 0.253 µM): 0.162
- relative viability ([15]; first compound 0.8 µM): 0.165
- relative viability ([15]; first compound 2.53 µM): 0.171
- relative viability ([16]; first compound 0.08 µM): 0.706
- relative viability ([16]; first compound 0.253 µM): 0.636
- relative viability ([16]; first compound 0.8 µM): 0.64
- relative viability ([16]; first compound 2.53 µM): 0.552
- relative viability ([17]; first compound 0.08 µM): 0.261
- relative viability ([17]; first compound 0.253 µM): 0.259
- relative viability ([17]; first compound 0.8 µM): 0.269
- relative viability ([17]; first compound 2.53 µM): 0.26
- relative viability ([18]; first compound 0.08 µM): 0.294
- relative viability ([18]; first compound 0.253 µM): 0.272
- relative viability ([18]; first compound 0.8 µM): 0.326
- relative viability ([18]; first compound 2.53 µM): 0.276
- relative viability ([19]; first compound 0.08 µM): 1.22
- relative viability ([19]; first compound 0.253 µM): 1.08
- relative viability ([19]; first compound 0.8 µM): 0.979
- relative viability ([19]; first compound 2.53 µM): 0.978
- relative viability ([20]; first compound 0.08 µM): 0.243
- relative viability ([20]; first compound 0.253 µM): 0.242
- relative viability ([20]; first compound 0.8 µM): 0.261
- relative viability ([20]; first compound 2.53 µM): 0.231
- relative viability ([21]; first compound 0.08 µM): 1.05
- relative viability ([21]; first compound 0.253 µM): 1
- relative viability ([21]; first compound 0.8 µM): 1.1
- relative viability ([21]; first compound 2.53 µM): 0.947
- relative viability ([22]; first compound 0.08 µM): 0.443
- relative viability ([22]; first compound 0.253 µM): 0.326
- relative viability ([22]; first compound 0.8 µM): 0.266
- relative viability ([22]; first compound 2.53 µM): 0.303
- relative viability ([23]; first compound 0.08 µM): 0.585
- relative viability ([23]; first compound 0.253 µM): 0.561
- relative viability ([23]; first compound 0.8 µM): 0.548
- relative viability ([23]; first compound 2.53 µM): 0.512
